The target of the assay is T1, dMpped (Drosophila melanogaster, UniProt Q9VT29).
T1 construct: gene Mpped; full-length coding region (300 residues) amplified from whole-fly cDNA; E. coli BL21DE3; gel filtration; about 37 kDa on gel
Kind of assay: colorimetric p-nitrophenol release, […] nm. It is filed as biochemical. The settings on record: Mn2+ as metal cofactor (5 mM in standard assay); pH 9.0 triple buffer; 5 mM 2-mercaptoethanol; 10 mM NaCl.

A word on the Km: it is the substrate concentration at which the rate is half of its maximum.

T1 sequence (Q9VT29 entry or part of it): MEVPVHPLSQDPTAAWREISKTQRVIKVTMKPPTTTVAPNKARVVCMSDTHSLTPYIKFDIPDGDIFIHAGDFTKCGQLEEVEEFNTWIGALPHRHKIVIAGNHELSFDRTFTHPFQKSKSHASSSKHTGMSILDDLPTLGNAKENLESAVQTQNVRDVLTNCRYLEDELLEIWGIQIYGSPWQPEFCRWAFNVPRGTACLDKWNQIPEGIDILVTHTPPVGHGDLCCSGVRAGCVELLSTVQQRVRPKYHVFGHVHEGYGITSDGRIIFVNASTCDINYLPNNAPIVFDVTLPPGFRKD

Regarding `O=[N+]([O-])c1ccc(OP(=O)(O)c2ccccc2)cc1` [pNPPP], the Km is ~10 mM.

These data come from PMC10547211, “Neuronal expression in Drosophila of an evolutionarily conserved metallophosphodiesterase reveals pleiotropic roles in longevity and odorant response” (PLOS Genetics, 2023).
